Data: ChEMBL document CHEMBL3351318, “Synthesis of novel 4-nitropyrrole-based semicarbazide and thiosemicarbazide hybrids with antimicrobial and anti-tubercular activity” (Bioorg Med Chem Lett, 2014)
In brackets after ≈: the same amount, converted by molar mass.

Columns and labels:
Staphylococcus aureus [1] = test: Ratio of ciprofloxacin MIC to compound MIC for methicillin-resistant Staphylococcus aureus ATCC 43866 after 48 hrs by broth dilution technique; assay type: functional
Escherichia coli [2] = test: Ratio of ciprofloxacin MIC to compound MIC for Escherichia coli ATCC 25922 after 48 hrs by broth dilution technique; assay type: functional
Candida albicans [3] = test: Ratio of Amphotericin B MIC to compound MIC for Candida albicans after 48 hrs by broth dilution technique; assay type: functional
Staphylococcus aureus [4] = test: Ratio of ciprofloxacin MIC to compound MIC for methicillin-sensitive Staphylococcus aureus ATCC 35556 after 48 hrs by broth dilution technique; assay type: functional
Escherichia coli [5] = test: Antimicrobial activity against Escherichia coli ATCC 25922 after 48 hrs by broth dilution technique; assay type: functional; settings: ATCC 25922, 48 h
Staphylococcus aureus [6] = test: Antimicrobial activity against methicillin-resistant Staphylococcus aureus ATCC 43866 after 48 hrs by broth dilution technique; assay type: functional; settings: ATCC 43866, 48 h
Staphylococcus aureus [7] = test: Antimicrobial activity against methicillin-sensitive Staphylococcus aureus ATCC 35556 after 48 hrs by broth dilution technique; assay type: functional; settings: ATCC 35556, 48 h
Vero = test: Cytotoxicity against African green monkey Vero cells assessed as reduction in cell viability after 72 hrs by MTT assay; assay type: cell-based; settings: Chlorocebus sabaeus
[8] = system: Mycobacterium tuberculosis; test: Antitubercular activity against Mycobacterium tuberculosis H37Rv after 7 days by Resazurin micro titer assay; assay type: functional; settings: 168 h
Klebsiella pneumoniae = test: Antimicrobial activity against Klebsiella pneumoniae after 48 hrs by broth dilution technique; assay type: functional
Candida albicans [9] = test: Antimicrobial activity against Candida albicans after 48 hrs by agar dilution method; assay type: functional

SMILES | Ratio (Staphylococcus aureus [1]) | Ratio (Escherichia coli [2]) | Ratio (Candida albicans [3]) | Ratio (Staphylococcus aureus [4]) | MIC (Escherichia coli [5]) [µg/mL] | MIC (Staphylococcus aureus [6]) [µg/mL] | MIC (Staphylococcus aureus [7]) [µg/mL] | IC50 (Vero) [µM] | MIC [8] [µg/mL] | MIC (Klebsiella pneumoniae) [µg/mL] | MIC (Candida albicans [9]) [µg/mL]
Cn1cc([N+](=O)[O-])cc1C(=O)NNC(=S)Nc1ccc([N+](=O)[O-])cc1 | 8 | 4 | 4 | 8 | 0.39 (≈ 1.07 µM) | 0.39 (≈ 1.07 µM) | 0.195 (≈ 0.535 µM) | 395 | 53.8 (≈ 148 µM) | 1.56 (≈ 4.28 µM) | 0.78 (≈ 2.14 µM)
COc1ccc(NC(=S)NNC(=O)c2cc([N+](=O)[O-])cn2C)cc1 | 8 | 4 | 4 | 8 | 0.39 (≈ 1.12 µM) | 0.39 (≈ 1.12 µM) | 0.195 (≈ 0.558 µM) | 184 | 19.4 (≈ 55.5 µM) | 1.56 (≈ 4.47 µM) | 0.78 (≈ 2.23 µM)
Cn1cc([N+](=O)[O-])cc1C(=O)NNC(=S)Nc1ccc(F)cc1 | 8 | 4 | 4 | 8 | 0.39 (≈ 1.16 µM) | 0.39 (≈ 1.16 µM) | 0.195 (≈ 0.578 µM) | 662 | 6.7 (≈ 19.9 µM) | 1.56 (≈ 4.62 µM) | 0.78 (≈ 2.31 µM)
Cn1cc([N+](=O)[O-])cc1C(=O)NNC(=S)Nc1ccccc1F | 4 | 4 | 4 | 4 | 0.39 (≈ 1.16 µM) | 0.78 (≈ 2.31 µM) | 0.39 (≈ 1.16 µM) | 293 | 3.2 (≈ 9.49 µM) | 1.56 (≈ 4.62 µM) | 0.78 (≈ 2.31 µM)
Cn1cc([N+](=O)[O-])cc1C(=O)NNC(=S)Nc1ccc(Cl)cc1 | 8 | 4 | 4 | 8 | 0.39 (≈ 1.1 µM) | 0.39 (≈ 1.1 µM) | 0.195 (≈ 0.551 µM) | 210 | 16.3 (≈ 46.1 µM) | 1.56 (≈ 4.41 µM) | 0.78 (≈ 2.2 µM)
Cn1cc([N+](=O)[O-])cc1C(=O)NNC(=S)NC1CCCCC1 | 4 | 4 | 4 | 4 | 0.39 (≈ 1.2 µM) | 0.78 (≈ 2.4 µM) | 0.39 (≈ 1.2 µM) | 352 | 27.5 (≈ 84.5 µM) | 1.56 (≈ 4.79 µM) | 0.78 (≈ 2.4 µM)
Cc1ccccc1NC(=S)NNC(=O)c1cc([N+](=O)[O-])cn1C | – | 4 | 4 | 4 | 0.39 (≈ 1.17 µM) | 0.78 (≈ 2.34 µM) | 0.39 (≈ 1.17 µM) | 471 | 11.9 (≈ 35.7 µM) | 1.56 (≈ 4.68 µM) | 0.78 (≈ 2.34 µM)
